The subject of one test is DPPIV−/− knockout mice. The experiment in a line: LSEC engraftment/repopulation of irradiated liver by DPPIV staining (Examples 2 and 3). In kind it is in vivo, mouse. Conditions: targeted liver irradiation (50 Gy). The procedure:
8-12-week-old male and female Di-peptyl peptidase IV (DPPIV) −/− knockout mice and 8-12-week-old male and female C57Bl6 mice were used in this study. Animals were weighed in the beginning of the experiment and before tissue collection. All animals were housed in the Institute for Animal Studies at Albert Einstein College of medicine and fed regular rodent chow. All experiments were performed to according to protocols approved by Institutional Animal Care and Use Committee at Albert Einstein College of Medicine. Animals were made cirrhotic using CCl4 administration (intraperitoneal [IP] injections twice a week for at least 11 weeks).
Image-guided external beam irradiation was performed using a small animal radiation research platform (SARRP, Xstrahl Inc., Suwanee, Ga.). Mice were given gastrografin contrast through gavage to improve visualization of the gastrointestinal (GI) tract. After approximately 2 minutes, mice were positioned on a tubular couch and anesthetized with ˜2% Isofluorane (Isothesia, USP) in 2 L/min pure oxygen. A cone-beam computed tomography (CBCT) scan was acquired and a treatment plan irradiating the median lobe and right lobe was generated using the MuriPlan software. […] Within the targeted lobes, the position of the isocenter was chosen to minimize irradiation of the GI tract, spine, and heart (the maximum dose to these organs was kept below 10 Gy). Targets were irradiated with 50 Gy X-rays at 220 kVp energy and 13 mA tube current (dose rate of 2.4-2.5 Gy/min) using a 1 mm copper filter for beam hardening.
TPOm was diluted in sterile PBS to a 10 mg/ml stock. The stock was stored at −20° C. and allowed to come to room temperature prior to administration. TPOm was administered as a single dose (300 μg/kg) via subcutaneous injection 10 minutes after the transplant procedure.
DPPIV was selected as a marker for engraftment of exogenous LSECs in the DPPIV (−/−) animals. […] Slide imaging was done using a Perkin Elmer P250 High Capacity Slide Scanner.
LSECs were isolated from the single-cell suspension using CD146 microbeads (Miltenyi Biotec GmbH #130-092-007).
Following isolation of LSECs, 500×10^5 LSECs are transplanted via intrasplenic injection into healthy adult mice anesthetized with Isoflurane (Isothesia, USP) 24 hrs post HIR. Buprenorphine is given post-op as an analgesic.
To test the efficacy of TPOm as an agent that can cause LSEC engraftment, DPPIV−/− knockout mice received 50GY hepatic irradiation (HIR) to the median and right lobes of the liver using external-beam CT-guided x-ray irradiation, and LSECs that express DPPIV (FIG. 2A).
The methods were identical to those described above with the exception that the LSEC transplant was administered 4-5 days post irradiation and the TPOm or Romiplostim were administered approximately 10 minutes post LSEC transplant.

A further test concerns DPPIV KO mice. The experiment in a line: Engraftment of transplanted LSECs and hepatocytes by DPPIV immunostaining after HIR (Example 7). In kind it is in vivo, mouse. The note with it: Study A; 2 months after HIR; 50 Gy; LSECs 4 or 5 days after HIR; 300 μg/kg intraperitoneally 10 minutes after LSEC transplantation. Here is the method: 8-12-week-old male Di-peptyl peptidase IV knockout (Dppiv^−/−) mice and 8-12-week-old male C57BL/6 mice were used in this study.
The methods were identical to Experiment 5 as described above; including the preparation of test articles (solutions of RWJ-800088), isolation and transplant of LSECs, and Hepatic irradiation. In addition, Romiplostim was purchased from pharmacy and came in 250 μg powder. It was reconstituted per manufacturers description using solvent for solution for injection. After reconstitution, a deliverable volume of 0.5 mL solution contained 250 μg of romiplostim (500 μg/mL).
Animals were weighed in the beginning of the experiment.
The mice were transplanted with DPPIV^+ 5×10^5 liver sinusoidal endothelial cells (LSECs) intrasplenically 4 or 5 days later. The mice were then injected with 300 μg/kg of RWJ-800088 or Romiplostim intraperitoneally 10 minutes after LSEC transplantation as shown in Table 7.
The mice were then monitored until they made a full recovery and returned to the cage. The mice were followed for 2 and 5 months and necropsied. The liver was excised and prepared for the frozen section. The immunostaining of DPPIV activity was performed to examine the repopulation of the transplanted DPPIV^+ cells in the liver. […]

Take romiplostim [reference compound]: the “Engraftment when LSEC transplant is administered 24 hours post irradiation” value in the test with DPPIV−/− knockout mice was “Yes”. The “Engraftment when LSEC transplant is administered 4-5 days post irradiation” value in the test with DPPIV−/− knockout mice (drug approximately 10 minutes post LSEC transplant) is “Yes”. In addition, the “repopulation of LSECs in the irradiated liver tissue (DPPIV immunostaining)” value in the test with DPPIV KO mice is reported as “repopulation of LSECs in the irradiated liver tissue was observed”.

(Values after US20200237871A1, “METHODS FOR MITIGATING LIVER INJURY AND PROMOTING LIVER HYPERTROPHY, REGENERATION AND CELL ENGRAFTMENT IN CONJUNCTION WITH RADIATION AND/OR RADIOMIMETIC TREATMENTS” (Janssen Pharmaceutica NV, priority 2019, published 2020).)
